Patent publication US4208417A, “Indole derivatives and their use as anxiolytics” (Pharmindustrie, priority 1978, dated 1980)
Where two headings read alike, the source gives them in different places.

Experiments:
[1] = Acute toxicity in mice (LD50); type: in vivo; settings: mouse, in vivo
Excerpt: (§1) The following Table 2 contains values already given in U.S. Pat. No. 4,064,255 and supplies additional values obtained according to the same procedure.

[2] = target: benzodiazepine receptor (^3 H-diazepam binding sites, rat brain membranes)
Method: This efficacy is measured by Ki values in micro moles calculated by using the equation:
C=the concentration of ^3 H-diazepam,
KD =the affinity constant=2,74 μM, and
IC50 =the concentration causing 50% inhibition of ^3 H-diazepam binding.

Mice = experiment: Acute toxicity in mice (LD50); type: in vivo
Excerpt: as §1

[3] = iv, I.V., read-out: Acute toxicity LD50, I.V.
[4] = po, orally, read-out: Acute toxicity LD50, orally

Compound	LD50 [1, 3] [mg/kg]	LD50 [1, 4] [mg/kg]	Ki [2] [µM]	Acute toxicity LD50, I.V. (Mice) [mg/kg]	Acute toxicity LD50, orally (Mice) [mg/kg]
O=C(CC1CCNCC1)c1c[nH]c2ccccc12 [Example 1, Indolyl-3-(piperidyl-4-methyl)ketone]	47	300 to 900	43	–	–
COc1ccc2[nH]cc(CCC3CCNCC3)c2c1 [Example 8, [(Methoxy-5 indolyl-3)-2 ethyl]-4 piperidine]	41	675	40	–	–
Cn1cc(CCC2CCNCC2)c2ccccc21 [Example 9, [(Methyl-1 indolyl-3)-2 ethyl]-4 piperidine]	–	–	90	44	225
c1ccc2c(CCC3CCNCC3)c[nH]c2c1 [Example 10, [(Indolyl-3)-2 ethyl]-4 piperidine]	–	–	64	60	600
c1ccc2c(CC3CCNCC3)c[nH]c2c1 [Example 11, (Indolyl-3 methyl)-4 piperidine]	–	–	90	57	225
Clc1ccc2[nH]cc(CCC3CCNCC3)c2c1 [Example 12, [(Chloro-5 indolyl-3)-2 ethyl]-4 piperidine]	85	625	37	–	–
c1ccc2c(CCCC3CCNCC3)c[nH]c2c1 [Example 13, [(Indolyl-3)-3 propyl]-4 piperidine]	29	600	70	–	–
c1ccc(Cn2cc(CCC3CCNCC3)c3ccccc32)cc1 [Example 14, [(Benzyl-1 indolyl-3)-2 ethyl]-4 piperidine]	33	525	33	–	–
